Among the data in patent publication US9890138B2, “Diaminopyrimidine derivatives and processes for the preparation thereof” (YUHAN CORPORATION, priority 2011, dated 2018) are EC50 values, retold here.

Counter-ions that a name gives are not always drawn.

In this test the target is T1, human 5-HT4(a) (Homo sapiens, UniProt Q13639).
T1 construct: host or cells: GeneBlAzer HTR4-CRE-bla CHO-K1 cells
T1 sequence (Q13639 1-387 isoform Q13639-2): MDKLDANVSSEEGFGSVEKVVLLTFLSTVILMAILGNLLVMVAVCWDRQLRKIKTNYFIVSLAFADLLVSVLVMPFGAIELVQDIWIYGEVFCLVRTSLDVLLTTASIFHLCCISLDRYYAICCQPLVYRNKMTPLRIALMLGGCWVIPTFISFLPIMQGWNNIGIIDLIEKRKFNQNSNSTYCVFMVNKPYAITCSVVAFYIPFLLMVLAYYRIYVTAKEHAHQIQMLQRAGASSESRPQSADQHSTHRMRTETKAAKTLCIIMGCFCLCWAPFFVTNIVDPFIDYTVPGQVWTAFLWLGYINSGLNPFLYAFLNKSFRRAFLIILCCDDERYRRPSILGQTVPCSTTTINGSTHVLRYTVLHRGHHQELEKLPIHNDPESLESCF
As to the kind of experiment: Evaluation of agonistic activity in CHO-K1 cells expressing human 5-HT4(a) (GeneBlAzer HTR4-CRE-bla CHO-K1, beta-lactamase reporter). The class given is cell-based. Particulars: CHO-K1 cells stably expressing human 5-HT4(a). In a few lines:
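Agonism read as CRE-driven β-lactamase activity: emission ratio 465/535 nm (excitation 410 nm) after 2 h substrate loading. Preceded by 5 h compound treatment, 8 concentrations, 1% DMSO in the added solution, of overnight-plated reporter CHO-K1 cells; EC50 by non-linear regression.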
The term EC50 denotes the midpoint of the concentration-response curve. A low value points to greater potency. `CCCc1cc(N2CCC[C@H]2CO)nc(Nc2cccc(C#N)c2)n1` [Example 194, (S)-3-{4-[2-(hydroxymethyl)pyrrolidin-1-yl]-6-propylpyrimidin-2-ylamino}benzonitrile]: a half-maximal effect (EC50) was put at 200 pM.
For `CCCc1cc(N2CCC[C@H]2CO)nc(Nc2cccc(SC)c2)n1` [Example 195] the value was 250 pM; for `CCCc1cc(N2CCC[C@H]2CO)nc(Nc2ccc(Cl)c([N+](=O)[O-])c2)n1` [Example 196, (S)-{1-[2-(4-chloro-3-nitrophenylamino)-6-propylpyrimidin-4-yl]pyrrolidin-2-yl}methanol], 100 pM.
The value for `CCCc1cc(N2CCC[C@H]2CO)nc(Nc2cccc(C(F)(F)F)c2)n1` [Example 203] was 300 pM; that for `CCCc1cc(N2CCC[C@H]2CO)nc(Nc2cc(Cl)ccc2C)n1` [Example 204] was 470 pM.
For `CCCc1cc(N2CCC[C@H]2CO)nc(Nc2ccc(C)c(Cl)c2)n1` [Example 206] the value was 160 pM; for `CCCc1cc(N2CCC[C@H]2CO)nc(Nc2cccc([N+](=O)[O-])c2)n1` [Example 207], 83 pM; for `CCCc1cc(N2CCC[C@H]2CO)nc(Nc2ccc(F)c([N+](=O)[O-])c2)n1` [Example 208, (S)-{1-[2-(4-fluoro-3-nitrophenylamino)-6-propylpyrimidin-4-yl]pyrrolidin-2-yl}methanol], 60 pM.
Take `CCCc1cc(N2CCC[C@H]2CO)nc(Nc2ccc(C)c([N+](=O)[O-])c2)n1` [Example 210, (S)-{1-[2-(4-methyl-3-nitrophenylamino)-6-propylpyrimidin-4-yl]pyrrolidin-2-yl}methanol]: the response was half-maximal at 16 pM (EC50).
The value for `CCCc1cc(N2CCC[C@H]2CO)nc(Nc2ccc(N)c(C(F)(F)F)c2)n1` [Example 211] was 19 pM.
For `CCCc1cc(N2CCC[C@H]2CO)nc(Nc2ccc(N)c([N+](=O)[O-])c2)n1` [Example 212, (S)-{1-[2-(4-amino-3-nitrophenylamino)-6-propylpyrimidin-4-yl]pyrrolidin-2-yl}methanol] the value was 8.9 pM; for `CCCc1cc(N2CCC[C@H]2CO)nc(Nc2ccc(C)c(C#N)c2)n1` [Example 213], 17 pM; for `CCCc1cc(N2CCC[C@H]2CO)nc(Nc2ccc(F)c(C#N)c2)n1` [Example 214, (S)-2-fluoro-5-{4-[2-(hydroxymethyl)pyrrolidin-1-yl]-6-propylpyrimidin-2-ylamino}benzonitrile], 29 pM.
`CCCc1cc(N2CCC[C@H]2CO)nc(Nc2ccc(N)c(C#N)c2)n1` [Example 215]: the EC50 came to 18 pM.
For `CCCc1cc(N2CC[C@H](NCCN)C2)nc(Nc2cccc(C#N)c2)n1` [Example 220] the value was 70 pM; for `CCCc1cc(N2CC[C@H](NC3CCNCC3)C2)nc(Nc2cccc(C#N)c2)n1` [Example 221, (S)-3-{4-[3-(piperidin-4-ylamino)pyrrolidin-1-yl]-6-propylpyrimidin-2-ylamino}benzonitrile], 149 pM; for `CCCCN1CCC(N[C@H]2CCN(c3cc(CCC)nc(Nc4cccc(C#N)c4)n3)C2)CC1` [Example 222], 82 pM.
For `CCCCc1cc(N2CC[C@H](NC(C)=O)C2)nc(Nc2cccc(C#N)c2)n1` [Example 223] the value was 11 pM; for `CCCCc1cc(N2CCC[C@H]2CO)nc(Nc2cccc(C#N)c2)n1` [Example 224], 4.3 pM.
The value for `CCCCc1cc(N2CCC[C@H]2C)nc(Nc2cccc(C#N)c2)n1` [Example 225] was 52 pM; that for `CCCCc1cc(N2CC[C@H](NC)C2)nc(Nc2cccc(C#N)c2)n1` [Example 226] was 52 pM; that for `CCCCc1cc(N2CC[C@H](NC(C)=O)C2)nc(Nc2ccc(C)c(C#N)c2)n1` [Example 228, (S)—N-{1-[6-butyl-2-(3-cyano-4-methylphenylamino)pyrimidin-4-yl]pyrrolidin-3-yl}acetamide] was 14 pM.
In the case of `CCCCc1cc(N2CCC[C@H]2C)nc(Nc2ccc(C)c(C#N)c2)n1` [Example 230], a half-maximal response (EC50) required 47 pM.
The value for `CCCCc1cc(N2CC[C@H](NC)C2)nc(Nc2ccc(C)c(C#N)c2)n1` [Example 231] was 6.7 pM; that for `CCCCc1cc(N2CC[C@H](NC(=O)OC(C)(C)C)C2)nc(Nc2ccc(C)c(C#N)c2)n1` [Example 232, (S)-tert-butyl 1-[6-butyl-2-(3-cyano-4-methylphenylamino)pyrimidin-4-yl]pyrrolidin-3-ylcarbamate] was 130 pM; that for `CCCCc1cc(N2CC[C@H](N)C2)nc(Nc2cccc(C#N)c2)n1` [Example 233, (S)-3-[4-(3-aminopyrrolidin-1-yl)-6-butylpyrimidin-2-ylamino]benzonitrile dihydrochloride] was 19 pM.
The value for `CCCCc1cc(N2CC[C@H](N)C2)nc(Nc2ccc(C)c(C#N)c2)n1` [Example 234, (S)-5-[4-(3-aminopyrrolidin-1-yl)-6-butylpyrimidin-2-ylamino]-2-methylbenzonitrile dihydrochloride] was 1.2 pM.
For `CCCCc1cc(N2CC[C@H](NC(C)C)C2)nc(Nc2cccc(C#N)c2)n1` [Example 235] the value was 2.3 pM.
In the case of `CCCCc1cc(N2CC[C@H](N(CC)CC)C2)nc(Nc2cccc(C#N)c2)n1` [Example 236], the half-maximal effective concentration (EC50) was 209 pM.
For the compound `CCCCc1cc(N2CC[C@H](NCC3CC3)C2)nc(Nc2cccc(C#N)c2)n1` [Example 237], a half-maximal effect (EC50) was put at 1.3 pM.
Take `CCCCc1cc(N2CC[C@H](N(CC)CC)C2)nc(Nc2ccc(C)c(C#N)c2)n1` [Example 239]: the half-maximal effective concentration (EC50) stood at 115 pM.
For `CCCCc1cc(N2CC[C@H](NCC3CC3)C2)nc(Nc2ccc(C)c(C#N)c2)n1` [Example 240] the value was 2.5 pM.
The value for `CCCc1cc(N2CC[C@H](NC(C)=O)C2)nc(Nc2ccc(Cl)c([N+](=O)[O-])c2)n1` [Example 241, (S)—N-{1-[2-(4-chloro-3-nitrophenylamino)-6-propylpyrimidin-4-yl]pyrrolidin-3-yl}acetamide] was 12 pM.
For `CCCc1cc(N2CC[C@H](NC(C)=O)C2)nc(Nc2cccc(SC)c2)n1` [Example 242] the value was 58 pM.
As to `CCCc1cc(N2CC[C@H](NC(C)=O)C2)nc(Nc2ccc3cc[nH]c3c2)n1` [Example 243], the EC50 stood at 11 pM.
`CCCc1cc(N2CC[C@H](NC(C)=O)C2)nc(Nc2cccc(C(F)(F)F)c2)n1` [Example 244] gave a 50% effective concentration (EC50) of 28 pM.
Turning to `CCCc1cc(N2CC[C@H](NC(C)=O)C2)nc(Nc2ccc3c(C)cc(=O)oc3c2)n1` [Example 245], the midpoint of the response, the EC50, lay at 53 pM.
For `CCCc1cc(N2CC[C@H](NC(C)=O)C2)nc(Nc2ccc(C)c(Cl)c2)n1` [Example 246] the value was 40 pM; for `CCCc1cc(N2CC[C@H](NC(C)=O)C2)nc(Nc2cccc([N+](=O)[O-])c2)n1` [Example 247], 12 pM; for `CCCc1cc(N2CC[C@H](NC(C)=O)C2)nc(Nc2ccc(F)c([N+](=O)[O-])c2)n1` [Example 248, (S)—N-{1-[2-(4-fluoro-3-nitrophenylamino)-6-propylpyrimidin-4-yl]pyrrolidin-3-yl}acetamide], 16 pM.
The value for `CCCc1cc(N2CC[C@H](NC(C)=O)C2)nc(Nc2ccc(C)c([N+](=O)[O-])c2)n1` [Example 249, (S)—N-{1-[2-(4-methyl-3-nitrophenylamino)-6-propylpyrimidin-4-yl]pyrrolidin-3-yl}acetamide] was 1.8 pM; that for `CCCc1cc(N2CC[C@H](NC(C)=O)C2)nc(Nc2ccc(F)c(C#N)c2)n1` [Example 251] was 10 pM.
The value for `CCCc1cc(N2CC[C@H](NC(C)=O)C2)nc(Nc2ccc(C)c(C#N)c2)n1` [Example 252, (S)—N-{1-[2-(3-cyano-4-methylphenylamino)-6-propylpyrimidin-4-yl]pyrrolidin-3-yl}acetamide] was 5.2 pM; that for `CCCc1cc(N2CC[C@H](NC(C)=O)C2)nc(Nc2ccc(F)c(C(F)(F)F)c2)n1` [Example 253] was 14 pM.
`CCCc1cc(N2CC[C@H](NC(C)=O)C2)nc(Nc2ccc(N)c([N+](=O)[O-])c2)n1` [Example 254, (S)—N-{1-[2-(4-amino-3-nitrophenylamino)-6-propylpyrimidin-4-yl]pyrrolidin-3-yl}acetamide] showed an EC50 of 1.5 pM.
For `CCCc1cc(N2CC[C@H](NC(C)=O)C2)nc(Nc2cc(Cl)ccc2C)n1` [Example 255] the value was 23 pM; for `CCCc1cc(N2CC[C@H](NC(C)=O)C2)nc(Nc2ccc(N)c(C#N)c2)n1` [Example 260], 15 pM.
Consider `CCCc1cc(N2CC[C@H](NC(C)=O)C2)nc(Nc2ccc(N)c(C(F)(F)F)c2)n1` [Example 261], for which it took 7.1 pM to reach a half-maximal effect (EC50).
For `CCCc1cc(N2CC[C@H](NC(C)=O)C2)nc(Nc2cc(N)cc(C#N)c2)n1` [Example 262] the value was 3.9 pM; for `CCCc1cc(N2CC[C@H](NC(C)=O)C2)nc(Nc2cc(N)cc(C(F)(F)F)c2)n1` [Example 268], 11 pM; for `CCCc1cc(N2CC[C@H](NC(C)=O)C2)nc(Nc2ccc(N)cc2)n1` [Example 270], 204 pM.
For `CCCc1cc(N2CC[C@H](NC(C)=O)C2)nc(Nc2ccc(C)c(O)c2)n1` [Example 274] the value was 87 pM; for `CCCc1cc(N2CC[C@H](NC(C)=O)C2)nc(Nc2ccc(C)c(OC)c2)n1` [Example 279], 78 pM; for `CCCc1cc(N2CC[C@H](NC(C)=O)C2)nc(Nc2ccc(C)c(C(F)(F)F)c2)n1` [Example 280], 26 pM.
`CCCc1cc(N2CC[C@H](NC(C)=O)C2)nc(Nc2ccc(C)c(C)c2)n1` [Example 281] showed an EC50 of 196 pM.
For `CCCc1cc(N2CC[C@H](NC(C)=O)C2)nc(Nc2ccc(C)c(F)c2)n1` [Example 282] the value was 103 pM.
